From ChEMBL document CHEMBL2203073, “Synthesis and biological evaluation of 4,4-dimethyl lithocholic acid derivatives as novel inhibitors of protein tyrosine phosphatase 1B” (Bioorg Med Chem Lett, 2012) come the findings set out here.

pIC50, pKi: −log10 of the molar value.

The target of assay [1] is T1, Tyrosine-protein phosphatase non-receptor type 2 (Homo sapiens, UniProt P17706).
T1 sequence (P17706 whole entry): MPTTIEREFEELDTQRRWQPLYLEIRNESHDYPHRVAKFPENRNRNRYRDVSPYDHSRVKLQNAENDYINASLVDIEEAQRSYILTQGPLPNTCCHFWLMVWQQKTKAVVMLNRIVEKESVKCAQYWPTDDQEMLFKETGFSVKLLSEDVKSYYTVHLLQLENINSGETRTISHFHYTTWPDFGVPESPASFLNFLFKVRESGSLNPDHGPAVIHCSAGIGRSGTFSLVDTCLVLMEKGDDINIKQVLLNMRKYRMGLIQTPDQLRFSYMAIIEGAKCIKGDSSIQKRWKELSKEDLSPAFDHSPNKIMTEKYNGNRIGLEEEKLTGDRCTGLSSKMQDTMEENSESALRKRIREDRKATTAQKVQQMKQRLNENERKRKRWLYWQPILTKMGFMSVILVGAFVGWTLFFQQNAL
Description: Inhibition of TCPTP by para-nitrophenyl phosphate release assay.

For assay [2], the target named is T2, Tyrosine-protein phosphatase non-receptor type 11 (Homo sapiens) (UniProt Q06124).
T2 sequence (whole entry): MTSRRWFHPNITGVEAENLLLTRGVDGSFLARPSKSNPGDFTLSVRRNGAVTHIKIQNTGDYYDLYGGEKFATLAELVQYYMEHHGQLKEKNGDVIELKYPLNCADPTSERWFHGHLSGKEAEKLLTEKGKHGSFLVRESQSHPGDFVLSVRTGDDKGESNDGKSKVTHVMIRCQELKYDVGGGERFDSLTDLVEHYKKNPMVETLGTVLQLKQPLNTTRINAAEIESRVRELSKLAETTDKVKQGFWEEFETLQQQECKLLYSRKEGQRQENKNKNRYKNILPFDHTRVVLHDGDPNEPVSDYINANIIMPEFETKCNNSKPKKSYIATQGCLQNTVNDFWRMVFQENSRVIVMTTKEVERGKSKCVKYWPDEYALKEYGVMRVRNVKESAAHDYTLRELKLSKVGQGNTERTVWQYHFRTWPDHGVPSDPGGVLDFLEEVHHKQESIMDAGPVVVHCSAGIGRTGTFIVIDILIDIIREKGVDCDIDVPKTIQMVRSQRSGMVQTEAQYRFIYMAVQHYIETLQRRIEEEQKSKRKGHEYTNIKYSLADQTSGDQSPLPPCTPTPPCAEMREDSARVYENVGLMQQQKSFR
As to the kind of experiment: Inhibition of SHP2 at 40 uM.

Assay [3] has as its target T3, Tyrosine-protein phosphatase non-receptor type 1 (Homo sapiens, UniProt P18031).
T3 sequence (P18031 whole entry): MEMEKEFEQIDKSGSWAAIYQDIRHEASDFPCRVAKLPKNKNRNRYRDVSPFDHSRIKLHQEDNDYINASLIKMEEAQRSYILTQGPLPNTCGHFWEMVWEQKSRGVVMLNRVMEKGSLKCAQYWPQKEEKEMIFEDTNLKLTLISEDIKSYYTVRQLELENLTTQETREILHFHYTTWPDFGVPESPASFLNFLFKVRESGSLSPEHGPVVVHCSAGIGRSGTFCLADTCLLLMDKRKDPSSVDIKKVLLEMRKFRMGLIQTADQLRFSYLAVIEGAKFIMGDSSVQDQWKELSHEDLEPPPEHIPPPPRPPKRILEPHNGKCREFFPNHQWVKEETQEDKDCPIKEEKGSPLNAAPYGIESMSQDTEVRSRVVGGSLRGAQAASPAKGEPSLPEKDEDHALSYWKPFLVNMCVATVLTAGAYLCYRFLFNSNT
As to the kind of experiment: Competitive inhibition of PTP1B by para-nitrophenyl phosphate release assay.

The target in assay [4] is Tyrosine-protein phosphatase non-receptor type 6 (Homo sapiens) (UniProt P29350). Description: Inhibition of SHP1 at 40 uM.
Tyrosine-protein phosphatase non-receptor type 6 (Homo sapiens), sequence (P29350 whole entry): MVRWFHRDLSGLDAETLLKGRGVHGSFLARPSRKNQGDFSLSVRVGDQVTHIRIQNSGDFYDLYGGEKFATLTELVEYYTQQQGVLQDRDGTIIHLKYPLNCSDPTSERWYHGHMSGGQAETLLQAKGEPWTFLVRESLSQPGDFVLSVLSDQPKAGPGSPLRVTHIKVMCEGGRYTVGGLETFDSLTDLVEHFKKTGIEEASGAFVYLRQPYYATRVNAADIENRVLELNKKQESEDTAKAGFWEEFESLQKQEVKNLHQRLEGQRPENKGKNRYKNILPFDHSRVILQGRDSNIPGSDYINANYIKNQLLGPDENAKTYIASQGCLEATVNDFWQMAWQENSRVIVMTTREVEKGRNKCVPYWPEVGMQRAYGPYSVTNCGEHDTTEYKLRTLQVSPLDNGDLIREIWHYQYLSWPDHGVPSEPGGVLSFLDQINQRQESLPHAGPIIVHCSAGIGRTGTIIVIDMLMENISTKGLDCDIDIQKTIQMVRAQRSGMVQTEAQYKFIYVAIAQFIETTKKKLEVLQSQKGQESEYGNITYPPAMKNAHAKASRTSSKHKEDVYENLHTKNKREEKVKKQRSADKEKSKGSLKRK
In assay [5] the target is Receptor-type tyrosine-protein phosphatase F (Homo sapiens) (UniProt P10586). As to the kind of experiment: Inhibition of LAR at 40 uM.
Receptor-type tyrosine-protein phosphatase F (Homo sapiens), sequence (P10586 whole entry): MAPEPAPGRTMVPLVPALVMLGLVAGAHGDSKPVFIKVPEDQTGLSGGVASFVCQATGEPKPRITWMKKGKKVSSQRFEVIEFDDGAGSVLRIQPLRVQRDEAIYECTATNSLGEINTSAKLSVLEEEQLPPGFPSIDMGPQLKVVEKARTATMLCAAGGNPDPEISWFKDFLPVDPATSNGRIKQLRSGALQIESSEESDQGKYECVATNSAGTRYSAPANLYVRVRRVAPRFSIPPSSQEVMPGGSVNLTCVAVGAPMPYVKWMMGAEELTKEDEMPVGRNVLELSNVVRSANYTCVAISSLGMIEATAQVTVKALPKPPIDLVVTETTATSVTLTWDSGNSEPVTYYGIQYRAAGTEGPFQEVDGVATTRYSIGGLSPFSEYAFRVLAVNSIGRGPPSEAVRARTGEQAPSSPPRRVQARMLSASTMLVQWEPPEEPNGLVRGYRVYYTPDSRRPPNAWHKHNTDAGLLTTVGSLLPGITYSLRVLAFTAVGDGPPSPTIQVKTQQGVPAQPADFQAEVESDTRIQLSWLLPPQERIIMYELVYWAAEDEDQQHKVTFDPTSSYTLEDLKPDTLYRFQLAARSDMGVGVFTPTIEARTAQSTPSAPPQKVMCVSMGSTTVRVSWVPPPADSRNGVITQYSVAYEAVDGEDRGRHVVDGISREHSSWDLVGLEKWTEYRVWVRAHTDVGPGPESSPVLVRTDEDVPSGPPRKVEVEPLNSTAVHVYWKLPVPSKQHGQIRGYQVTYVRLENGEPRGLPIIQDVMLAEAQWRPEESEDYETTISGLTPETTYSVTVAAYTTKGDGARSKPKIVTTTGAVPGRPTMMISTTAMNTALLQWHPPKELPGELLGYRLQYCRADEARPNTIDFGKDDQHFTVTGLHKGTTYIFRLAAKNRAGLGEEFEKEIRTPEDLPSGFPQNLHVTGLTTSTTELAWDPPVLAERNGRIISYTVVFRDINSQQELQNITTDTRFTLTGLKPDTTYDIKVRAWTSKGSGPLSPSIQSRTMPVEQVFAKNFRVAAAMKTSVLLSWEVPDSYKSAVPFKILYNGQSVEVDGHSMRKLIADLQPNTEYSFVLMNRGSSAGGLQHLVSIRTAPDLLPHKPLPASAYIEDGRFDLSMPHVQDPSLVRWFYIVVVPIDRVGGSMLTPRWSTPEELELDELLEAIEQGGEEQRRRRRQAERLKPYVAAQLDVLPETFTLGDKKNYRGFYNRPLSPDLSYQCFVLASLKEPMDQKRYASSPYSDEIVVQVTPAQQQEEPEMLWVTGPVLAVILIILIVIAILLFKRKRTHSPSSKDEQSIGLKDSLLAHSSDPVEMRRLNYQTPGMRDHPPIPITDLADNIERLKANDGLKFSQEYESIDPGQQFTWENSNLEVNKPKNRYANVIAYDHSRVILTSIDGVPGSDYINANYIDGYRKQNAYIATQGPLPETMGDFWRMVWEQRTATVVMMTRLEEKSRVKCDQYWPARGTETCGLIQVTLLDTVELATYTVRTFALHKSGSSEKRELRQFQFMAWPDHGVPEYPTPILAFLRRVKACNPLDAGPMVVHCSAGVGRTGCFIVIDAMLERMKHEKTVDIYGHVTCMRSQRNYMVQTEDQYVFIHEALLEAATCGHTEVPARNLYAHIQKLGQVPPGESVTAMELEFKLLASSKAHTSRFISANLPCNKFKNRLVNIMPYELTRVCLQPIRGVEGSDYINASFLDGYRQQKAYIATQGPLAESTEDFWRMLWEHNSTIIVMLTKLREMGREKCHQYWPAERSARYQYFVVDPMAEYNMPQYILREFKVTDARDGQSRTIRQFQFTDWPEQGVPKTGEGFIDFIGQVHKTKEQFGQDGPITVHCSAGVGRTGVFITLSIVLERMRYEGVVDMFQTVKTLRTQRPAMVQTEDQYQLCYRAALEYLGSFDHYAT
A short description of assay [6]: Selectivity index, ratio of IC50 for TCPTP to PTP1B.
In assay [7] the target is T3, Tyrosine-protein phosphatase non-receptor type 1. As to the kind of experiment: Inhibition of PTP1B by para-nitrophenyl phosphate release assay.

Take `C[C@H](CCC(=O)O)[C@H]1CC[C@H]2[C@@H]3CC=C4C(C)(C)c5c(cnn5-c5ccccc5)C[C@]4(C)[C@H]3CC[C@]12C`: the pIC50 in assay [1] is 4.64; in assay [7], 5.79. The inhibition in assay [2] was 9.36%; in assay [4], 0.97%; in assay [5], 26.9%. The same molecule had a pKi in assay [3] of 6.08. For the same molecule, the Ratio IC50 in assay [6] was 14.1.

In the case of `COC(=O)CC[C@@H](C)[C@H]1CC[C@H]2[C@@H]3CC=C4C(C)(C)c5nc(N)sc5C[C@]4(C)[C@H]3CC[C@]12C`, the pIC50 in assay [1] is < 4.40; in assay [7], 5.04. Moreover, the Ratio IC50 in assay [6] is > 4.4.

For the molecule `C[C@H](CCC(=O)O)[C@H]1CC[C@H]2[C@@H]3CC=C4C(C)(C)c5nc(N)ncc5C[C@]4(C)[C@H]3CC[C@]12C`, the values for the negative logarithm of the IC50 (pIC50) in assay [1] and in assay [7] were 4.77 and 5.44, respectively. Also, the Ratio IC50 in assay [6] amounted to 5.

As for `COC(=O)CC[C@@H](C)[C@H]1CC[C@H]2[C@@H]3CC=C4C(C)(C)c5nccnc5C[C@]4(C)[C@H]3CC[C@]12C`, the pIC50 was < 4.40 in assay [1] and 4.55 in assay [7]. Besides, the Ratio IC50 in assay [6] is > 1.4.

As for `CCOC(=O)CC[C@@H](C)[C@H]1CC[C@H]2[C@@H]3CC=C4C(C)(C)c5nc(N)ncc5C[C@]4(C)[C@H]3CC[C@]12C`, the negative-log IC50 (pIC50) in assay [1] and in assay [7] was < 4.40 each time.

`C[C@H](CCC(=O)O)[C@H]1CC[C@H]2[C@@H]3CC=C4C(C)(C)C(=O)CC[C@]4(C)[C@H]3CC[C@]12C`: the pIC50 is < 4.30 in assay [1] and 4.88 in assay [7].

Turning to `O=C(O)C(=O)c1ccc(OCc2ccc(COc3ccc(C(=O)C(=O)O)cc3)cc2)cc1`, the Ratio IC50 in assay [6] is 1.6.

For `C[C@H](CCC(=O)O)[C@H]1CC[C@H]2[C@@H]3CC=C4C(C)(C)c5[nH]nc(C(=O)O)c5C[C@]4(C)[C@H]3CC[C@]12C`, the pIC50 in assay [1] was 5.05; in assay [7], 5.03. For the same molecule, the Ratio IC50 in assay [6] came out at 0.9.

With `C[C@H](CCC(=O)O)[C@H]1CC[C@H]2[C@@H]3CC=C4C(C)(C)c5ncncc5C[C@]4(C)[C@H]3CC[C@]12C`, the negative logarithm of the IC50 (pIC50) in assay [1] is 4.97; in assay [7] it was 4.93. For the same molecule, the Ratio IC50 in assay [6] was 0.9.

In the case of `C[C@H](CCC(=O)O)[C@H]1CC[C@H]2[C@@H]3CC=C4C(C)(C)c5nnsc5C[C@]4(C)[C@H]3CC[C@]12C`, the negative logarithm of the IC50 (pIC50) in assay [1] was 4.44; in assay [7], 4.40. Besides, the Ratio IC50 in assay [6] stood at 0.9.

As for `C[C@H](CCC(=O)O)[C@H]1CC[C@H]2[C@@H]3CC=C4C(C)(C)c5[nH]ncc5C[C@]4(C)[C@H]3CC[C@]12C`, the pIC50 in assay [1] is 4.72; in assay [7] it was 5.39. In assay [6], the Ratio IC50 came to 4.7.

Take `CCOC(=O)CC[C@@H](C)[C@H]1CC[C@H]2[C@@H]3CC=C4C(C)(C)c5[nH]ncc5C[C@]4(C)[C@H]3CC[C@]12C`: the negative-log IC50 (pIC50) in assay [1] was < 4.40; in assay [7], 4.72. Moreover, in assay [6], the Ratio IC50 was > 2.1.

`C[C@H](CCC(=O)O)[C@H]1CC[C@H]2[C@@H]3CC=C4C(C)(C)c5nccnc5C[C@]4(C)[C@H]3CC[C@]12C`: the negative logarithm of the IC50 (pIC50) in assay [1] was 4.62; in assay [7], 5.06. Also, the Ratio IC50 in assay [6] turned out to be 2.8.

Take `COC(=O)CC[C@@H](C)[C@H]1CC[C@H]2[C@@H]3CC=C4C(C)(C)C(=O)CC[C@]4(C)[C@H]3CC[C@]12C`: the pIC50 is < 4.30 in assay [1] and 4.88 in assay [7]. The Ratio IC50 in assay [6] is > 3.8.

Take `C[C@H](CCC(=O)O)[C@H]1CC[C@H]2[C@@H]3CC[C@@H]4C[C@H](O)CC[C@]4(C)[C@H]3CC[C@]12C` [LITHOCHOLIC ACID]: the results for the negative logarithm of the IC50 (pIC50) in assay [1] and in assay [7] were 4.69 and 4.89, respectively. In assay [6], the Ratio IC50 was found to be 1.6.

In the case of `Cc1ncc2c(n1)C(C)(C)C1=CC[C@H]3[C@@H]4CC[C@H]([C@H](C)CCC(=O)O)[C@@]4(C)CC[C@@H]3[C@@]1(C)C2`, the negative-log IC50 (pIC50) is 4.94 in assay [1] and 5.04 in assay [7]. For the same molecule, the Ratio IC50 in assay [6] turned out to be 1.2.

For the molecule `C[C@H](CCC(=O)O)[C@H]1CC[C@H]2[C@@H]3CC=C4C(C)(C)c5nc(N)sc5C[C@]4(C)[C@H]3CC[C@]12C`, the pIC50 in assay [1] was 4.96; in assay [7] it was 5.25. Also, the Ratio IC50 in assay [6] came to 2.

Take `C[C@H](CCC(=O)O)[C@H]1CC[C@H]2[C@@H]3CC=C4C(C)(C)c5oncc5C[C@]4(C)[C@H]3CC[C@]12C`: the pIC50 was 4.33 in assay [1] and 5.04 in assay [7]. Moreover, the Ratio IC50 in assay [6] turned out to be 5.1.

What is called pIC50 is the negative decadic logarithm of the IC50, by convention in mol/L. Read a high pIC50 as a low IC50. As usually defined, the inhibition is how much of the control response was suppressed. As a reminder, the pKi is the negative decadic logarithm of the Ki, by convention in mol/L.
